“And” between values parts separate entries of the source, which are not always exact repeats. Equal entries are not always repeated. Where two headings read alike, the source gives them in different places.
Assays:
HSV-2 = conditions: for Percent Reduction of lesions / # of lesions: TEAC ointment from 12-16 hours p.i.
Method: Female guinea pigs (obtained from Charles River, Inc.) weighing approximately 200 g were used as a model for HSV-2 skin lesions. The animals were anesthetized with 0.15 ml of Ketamine-Rompum mixture. The animals were first shaved on their back with a hair clipper and then treated with a depilatory cream (Nair). The denuded area was washed well and then dried. A tuberculin tyne was washed with ethanol and air dried.
Two methods were tried for infecting the animals with the virus. In one, a drop of HSV-2 suspension was placed on the skin and the skin was punctured with the tyne. In the second method, the tyne was dipped in the virus suspension before puncturing the skin.
In the first experiment, each of 3 guinea pigs was infected on three areas of their backs. At 3 days post infection, treatment was begun on one side of each animal, leaving the other side untreated as a control.
The animals were examined daily for vesicles (V), crust (C) and for erythema (R) alone.
In the next experiment 6 guinea pigs were infected in the same manner as the initial 3 guinea pigs. Treatment was begun 12-16 hours post infection. […] Lesions showing an erythematous base with either a blister or a crust on top were considered to HSV specific. […] Both the control animals and treated animals were carefully read in the same manner.

HSV-1 (F strain) = test system: HSV-1 (F strain)
Method: In Series No. 1 of Example No. 1, monolayer cultures of Vero, RK-13 (rabbit kidney), and WISH (human amnion, Hayflick) cells were used in the experiments of Example No. 1. The cells were grown in Basal Minimal Eagle's Media supplemented with 5% fetal calf serum, 1% glutamine, sodium bicarbonate and antibiotics. Cultures were maintained in a maintenance media that was the same media, except that the maintenance media contained 2% fetal calf serum. An F Strain of HSV-1 was chosen because it is a well-known prototype of HSV-1. This F Strain can be obtained from the American Type Culture Collection (ATCC), 12301 Parklawn Drive, Rockville, Md. 20852, at which it is identified as ATC-VR 733. For studies with HSV-2, a G strain of HSV-2 (ATCC-VR 734) and a 333 strain of HSV-2 were selected. These strains also can be obtained from the ATCC.
Two methods were used to test the drug's effectiveness in the suppression of viral growth. In the pre-inoculation experiments, the drug was added after adsorption of the virus. In the pre-incubation experiments, the drug was added prior to infection of the cell cultures.
Accordingly, the pre-inoculation experiments measured the effect of the drug on a cell that was already infected with the virus. The pre-incubation experiments measured the cell cultures that were treated with the drug prior to the inoculation to determine if these cells then would be permissive or non-permissive to the tested virus. In these experiments, plaque reduction assays provided a quantitative measure of antiviral activity and was deemed to be reliable and objective.
In the pre-incubation experiments, the media was either decanted or gently aspirated from the cultures. After decanting or aspirating, 1 ml of the drug dilution plus maintenance media was added to the cultures. The cultures that served as virus controls or cell controls received 2 ml of maintenance media. After the pre-treatment period, the media was again aspirated and the cell cultures were infected with the virus.
When this occurred, the cultures were fixed and stained with crystal violet. The plaque were then carefully counted under the microscope. By such a counting and careful comparison, percentages of plaque inhibition in the treated cultures were then calculated.
These duplicate wells were incubated for 3 hours. After this time, the maintenance media was aspirated and the cultures were infected. Fresh maintenance media was then added.

Vero cells = test system: Vero cells
Method: To determine the toxicity level of the drug, all three cell lines--RK-13, Vero cells, and WISH cells--were used. In the toxicity experiments, the effect of the drug on the uninfected cell for a range of periods of time was determined. Accordingly, cultures were incubated with and without the drug. The time of exposure was from one to seven hours. A comparison was then made between the drug tested cultures and the control cultures. After each period of incubation, the cells were washed and fresh media was added to the cells. The cell viability was then determined by dividing these cultures and having them grow into new cell cultures.
At the end of the incubation period, the cultures were washed twice with sterile PBS (Dulbecco). Fresh medium was added to each of the cultures. The cultures were then incubated for an additional 24 hours.
Healthy confluent monolayer cell cultures were overlaid with 1 ml of the drug and incubated for 48 hours at 37° C. and then stained. Cell cultures with maintenance media were used as controls.

[1] = Patient J, following day, 1% TEAC ointment topical
[2] = Patient J, two days after infusion 3.6 cc
[3] = Patient K, after second infusion
[4] = Exp. 1E, 4 hours pre-incubation, 100 mg/culture
[5] = Exp. 1E, 7 hours pre-incubation, 100 mg/culture
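Wherever duration of spots is given: individual clinical case observations in adult human patients with a history of recurrent HSV type 2 lesions, outcomes described qualitatively as reported symptoms and lesion episodes.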
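Wherever duration of vesicles is given: individual clinical case observations in adult human patients with a history of recurrent HSV type 2 lesions, outcomes described qualitatively as reported symptoms and lesion episodes.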
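Wherever recurrence of lesions or pain is given: individual clinical case observations in adult human patients with a history of recurrent HSV type 2 lesions, outcomes described qualitatively as reported symptoms and lesion episodes.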
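Wherever tiny areas under the skin is given: individual clinical case observations in adult human patients with a history of recurrent HSV type 2 lesions, outcomes described qualitatively as reported symptoms and lesion episodes.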

CC[N+](CC)(CC)CC.[Cl-] [TEAC, tetraethylammonium chloride]
tiny areas under the skin (HSV type 2; Patient A, about two weeks after third infusion 3.4 cc): disappeared in about a day | duration of vesicles (HSV type 2; Patient A, after first infusion): disappeared in two to three days without pain | duration of spots (HSV type 2; Patient A, after third infusion): 24 h | recurrence of lesions or pain (HSV type 2; Patient A, eighteen months after initial exam): no further lesions or pain | sciatic pain (HSV type 2; Patient A, first infusion 2.8 cc of 100 mg/cc): cessation of sciatic pain | sciatic nerve pain (HSV type 2; Patient A, second infusion 3.2 cc): the sciatic nerve pain disappeared during the infusion | itching and tingling (HSV type 2; Patient D): itching and tingling disappeared | lesions (HSV type 2; Patient D, two days later): all lesions were improving | lesions (HSV type 2; Patient E, 5 days after third infusion 5 cc): all lesions had cleared up | prodome and lesions (HSV type 2; Patient E, after first infusion): massive prodome with large weeping lesions | pinpoint lesions breaking out (HSV type 2; Patient E, after third infusion): 5-6 pinpoint lesions | prodome and lesions (HSV type 2; Patient E, next day after second infusion): no prodome and no lesions | breakout (HSV type 2; Patient E, second day after second infusion): another breakout was occurring | lesions (HSV type 2; Patient E, two days after first infusion): the lesions had started to crust | general condition (HSV type 2; Patient F, about 3 weeks later): completely cleared up | lesion (HSV type 2; Patient F, next day, 3.8 cc): improved | new lesions (HSV type 2; Patient F, nine days after second infusion): on the other side lesions had developed | duration of subsequent lesions (HSV type 2; Patient F, subsequent follow up): 12 days and 7 days | crusting of lesions (HSV type 2; Patient G, 4.3 cc): never crusted | psoriasis (HSV type 2; Patient G, 4.3 cc): psoriasis improved | time to disappearance of lesions (HSV type 2; Patient G, 4.3 cc): ≤ 48 h | lesions (HSV type 2; Patient G, next day, 4.3 cc): the lesions improving | setback (HSV type 2; Patient H, 6 days later): setback 6 days later when the condition became a visual attack | improvement (HSV type 2; Patient H, following day, 4.6 cc (6.0 mg/kg)): striking improvement | further problems (HSV type 2; Patient H, six months after treatment, besides 2 minor incidents of red spots and some aura): no further problems | incidents since treatment (HSV type 2; Patient J, 12 months later, ointment applied): very few incidents since treatment | new vesicles (HSV type 2; [1]): 2 vesicles | tingling and redness (HSV type 2; [1]): the tingling and redness had gone | duration of lesion (HSV type 2; Patient J, later attack, 1% TEAC ointment topical): 3 days | lesions (HSV type 2; Patient J, three days later, 1% TEAC ointment topical): all the lesions had dried up | lesions (HSV type 2; [2]): the lesions were drying | pain (HSV type 2; [2]): the pain had disappeared | duration of attacks (HSV type 2; [3]): 2 to 3 days | severity of attacks (HSV type 2; [3]): milder severity | expected attack (HSV type 2; Patient K, six weeks after second infusion 3.4 cc): the attack had not occurred | Percent Reduction of lesions (HSV-2; day 3 P.I.): 21% | # of lesions (HSV-2; day 3 P.I., control 19): 15 | Percent Reduction of lesions (HSV-2; day 4 P.I.): 27.5% | # of lesions (HSV-2; day 4 P.I., control 40): 29 | Percent Reduction of lesions (HSV-2; day 5 P.I.): 58.5% | # of lesions (HSV-2; day 5 P.I., control 41): 17 | Percent Reduction of lesions (HSV-2; day 6 P.I.): 58.3% | # of lesions (HSV-2; day 6 P.I., control 36): 15 | lesion appearance (HSV-2; first experiment, 4 times daily from 3 days p.i.): did not crust but appeared to be faded by 6 days post infection | dermatitis (HSV-2; first experiment, day 4 after treatment, probably due to TEAC or its vehicle or both): a rash appeared | number and size of lesions (HSV-2; given 12-16 hours p.i.): significant reduction in the number of lesions, but also in their size | rupture and crusting of lesions (HSV-2; given 12-16 hours p.i.): neither ruptured nor crusted | vesicle formation (HSV-2; given 12-16 hours p.i.): less vesicles formed | vesicles (HSV-2; given 3 days p.i.): reduced in elevation and eventually resolved | number and appearance of lesions vs control (HSV-2; treatment from 12-16 hours p.i.): marked difference between the two groups | % plaque inhibition (HSV-1 (F strain); Exp. 1D, 3 hours before infection, 12.5 mg/culture): 80% | % plaque inhibition (HSV-1 (F strain); Exp. 1D, 3 hours before infection, 25.0 mg/culture): 79% | % plaque inhibition (HSV-1 (F strain); Exp. 1D, 3 hours before infection, 50.0 mg/culture): 82% | % plaque inhibition (HSV-1 (F strain); Exp. 1D, 3 hours before infection, 100.0 mg/culture): 79% | % plaque inhibition (HSV-1 (F strain); Exp. 1E, 2 hours pre-incubation, 12.5 mg/culture): 18% | % plaque inhibition (HSV-1 (F strain); Exp. 1E, 2 hours pre-incubation, 25 mg/culture): 17% | % plaque inhibition (HSV-1 (F strain); Exp. 1E, 2 hours pre-incubation, 50 mg/culture): 24% | % plaque inhibition (HSV-1 (F strain); Exp. 1E, 2 hours pre-incubation, 100 mg/culture): 68% | % plaque inhibition (HSV-1 (F strain); Exp. 1E, 4 hours pre-incubation, 12.5 mg/culture): less than 20% | % plaque inhibition (HSV-1 (F strain); Exp. 1E, 4 hours pre-incubation, 50 mg/culture): 63% | % plaque inhibition (HSV-1 (F strain); [4]): 100% | cell layer appearance (thin) (HSV-1 (F strain); [4]): thin | % plaque inhibition (HSV-1 (F strain); Exp. 1E, 7 hours pre-incubation, 12.5 mg/culture): 76% | % plaque inhibition (HSV-1 (F strain); [5]): 100% | cell layer appearance (thin) (HSV-1 (F strain); [5]): thin | permissiveness of cells to virus (HSV-1 (F strain); added before viral inoculation, summary): rendered the cells non-permissive to the virus and no plaque formed | toxicity (Vero cells; 25 mg/ml, 48 hours): slight toxicity | change in morphology of cells (Vero cells; 5, 2.5, 1.25 mg/culture overnight): No change in the morphology of the cells | growth or general appearance vs untreated (Vero cells; 5, 2.5, 1.25 mg/culture, additional 24 hours in fresh medium): no apparent difference in the growth or general appearance

Source: patent US5686448A (priority 1995, dated 1997)
